ChEMBL document CHEMBL5385901, “Drug repurposing of propafenone to discover novel anti-tumor agents by impairing homologous recombination to delay DNA damage recovery of rare disease conjunctival melanoma” (Eur J Med Chem, 2023)

Experiments:
CRMM-1 [1] = test: Antitumor activity against human CRMM-1 cells xenografted in immunodeficient NCG mouse assessed as tumor growth suppression at 10 mg/kg, po for 28 days administered five times per week relative to control; assay type: functional; conditions: time 28 day
[2] = Toxicity in immunodeficient NCG mouse xenografted with human CRMM-1 cells assessed as pathomorphological change in kidney at 10 mg/kg, po for 28 days administered five times per week by H and E staining based analysis; assay type: organism-based; conditions: in vivo, 672 h, time 28 day
[3] = Toxicity in immunodeficient NCG mouse xenografted with human CRMM-1 cells assessed as pathomorphological change in liver at 10 mg/kg, po for 28 days administered five times per week by H and E staining based analysis; assay type: organism-based; conditions: in vivo, 672 h, time 28 day
CRMM-1 [4] = test: Antitumor activity against human CRMM-1 cells xenografted in immunodeficient NCG mouse assessed as mean tumor volume at 10 mg/kg, po for 28 days administered five times per week (reference value: 540 mm3); assay type: functional; conditions: time 28 day
[5] = Toxicity in immunodeficient NCG mouse xenografted with human CRMM-1 cells assessed as change in serum AST level at 10 to 20 mg/kg, ip for 28 days administered five times per week; assay type: organism-based; conditions: in vivo, 672 h, dose 10-20 mg/kg, time 28 day
[6] = Toxicity in immunodeficient NCG mouse xenografted with human CRMM-1 cells assessed as change in serum ALT level at 10 to 20 mg/kg, ip for 28 days administered five times per week; assay type: organism-based; conditions: in vivo, 672 h, dose 10-20 mg/kg, time 28 day
[7] = Toxicity in immunodeficient NCG mouse xenografted with human CRMM-1 cells assessed as pathomorphological change in kidney at 10 to 20 mg/kg, ip for 28 days administered five times per week by H and E staining based analysis; assay type: organism-based; conditions: in vivo, 672 h, dose 10-20 mg/kg, time 28 day
CRMM-1 [8] = test: Antitumor activity against human CRMM-1 cells xenografted in immunodeficient NCG mouse assessed as tumor growth suppression at 20 mg/kg, ip for 28 days administered five times per week relative to control; assay type: functional; conditions: time 28 day
CRMM-1 [9] = test: Antitumor activity against human CRMM-1 cells xenografted in immunodeficient NCG mouse assessed as mean tumor volume at 20 mg/kg, ip for 28 days administered five times per week (reference value: 540 mm3); assay type: functional; conditions: time 28 day
CRMM-1 [10] = test: Antitumor activity against human CRMM-1 cells xenografted in immunodeficient NCG mouse assessed as tumor growth suppression at 10 mg/kg, ip for 28 days administered five times per week relative to control; assay type: functional; conditions: time 28 day
[11] = Toxicity in immunodeficient NCG mouse xenografted with human CRMM-1 cells assessed as body weight loss at 10 to 20 mg/kg, ip for 28 days administered five times per week; assay type: organism-based; conditions: in vivo, 672 h, dose 10-20 mg/kg, time 28 day
[12] = Toxicity in immunodeficient NCG mouse xenografted with human CRMM-1 cells assessed as change in serum urea level at 10 to 20 mg/kg, ip for 28 days administered five times per week; assay type: organism-based; conditions: in vivo, 672 h, dose 10-20 mg/kg, time 28 day
[13] = Toxicity in immunodeficient NCG mouse xenografted with human CRMM-1 cells assessed as change in serum CREA level at 10 to 20 mg/kg, ip for 28 days administered five times per week; assay type: organism-based; conditions: in vivo, 672 h, dose 10-20 mg/kg, time 28 day
[14] = Toxicity in immunodeficient NCG mouse xenografted with human CRMM-1 cells assessed as pathomorphological change in liver at 10 to 20 mg/kg, ip for 28 days administered five times per week by H and E staining based analysis; assay type: organism-based; conditions: in vivo, 672 h, dose 10-20 mg/kg, time 28 day
CRMM-1 [15] = test: Antitumor activity against human CRMM-1 cells xenografted in immunodeficient NCG mouse assessed as mean tumor volume at 10 mg/kg, ip for 28 days administered five times per week (reference value: 540 mm3); assay type: functional; conditions: time 28 day

Compound	Activity (CRMM-1 [1]) [%]	Activity [2]	Activity [3]	Activity (CRMM-1 [4]) [mm3]	Activity [5]	Activity [6]	Activity [7]	Activity (CRMM-1 [8]) [%]	Activity (CRMM-1 [9]) [mm3]	Activity (CRMM-1 [10]) [%]	Activity [11]	Activity [12]	Activity [13]	Activity [14]	Activity (CRMM-1 [15]) [mm3]
Cn1cnc2c(F)c(Nc3ccc(Br)cc3F)c(C(=O)NOCCO)cc21 [BINIMETINIB]	41	Non-Toxic	Non-Toxic	270											
Cl.Cl.O=C(CCCc1ccccc1)c1c(OCCCN2CCNCC2)ccc2ccccc12					Non-Toxic	Non-Toxic	Non-Toxic	33	340	21	Non-Toxic	Non-Toxic	Non-Toxic	Non-Toxic	390
